# Laboratory results as given in patent US20110207751A1, “HETEROCYCLIC COMPOUNDS AND USES AS ANTICANCER AGENTS” (priority 2010, published 2011).
# Counter-ions that a name gives are not always drawn.
# Tests used:
# [1] = system: HepG2 cells (human liver cancer cell line); assay: Inhibition of cell proliferation, xCelligence cell index; type: cell-based; conditions: 72 hr post compound treatment, read-out: calculated IC50
# Source text: (§1) The biological activity of compounds disclosed herein was monitored and profiled using the Real-Time Cell Electronic Sensing (RT-CES®) system from ACEA Biosciences, Inc. The RT-CES system utilizes cell-substrate impedance technology to monitor cellular behavior inside tissue culture wells in a microtiter plate format. The technology features in the integration of molecular and cell biology with microelectronics and is based on the electronic detection of biological assay process. […]
# (§2) For measurement of cell-substrate or cell-electrode impedance using RT-CES technology, microelectrodes having appropriate geometries are fabricated onto the bottom surfaces of microtiter plate or similar device, facing into the wells. […] When there are changes to the biological status of the cells analogue electronic readout signals are measured automatically and in real time, and are converted to digital signals for processing and for analysis. In a RT-CES system, a cell index (arbitrary representation of change in impedance) is automatically derived and provided based on measured electrode impedance values. […]
# (§3) To quantify cell status based on the measured cell-electrode impedance, a parameter termed Cell Index is derived. Cell Index is a quantitative measure of the status of the cells in an electrode-containing well. […]
# [2] = system: MCF7 cells (human breast cancer cell line); assay: as above; type: cell-based; conditions: 72 hr post compound treatment, read-out: calculated IC50
# Source text: as §1, §2, §3
# [3] = system: MDA-MB-231 cells (human breast cancer cell line); assay: as above; type: cell-based; conditions: 72 hr post compound treatment, read-out: calculated IC50
# Source text: as §1, §2, §3
# [4] = system: tubulin (colchicine-binding site); assay: Spin column assay with [^3H]colchicine; conditions: tubulin with [^3H]colchicine and unlabeled competitor, 37° C. 1 h
# Protocol: Spin column assay. […] The reaction mixtures were incubated at 37° C. for 1 h. The samples were loaded onto Illustra™ MicroSpin™ G-50 columns (GE Healthcare) previously equilibrated with the buffer solution. The columns were placed into 1.5-ml tubes and spun at 750 g for 2 min at room temperature, and radioactivity in the flow-through was analyzed by a scintillation counter.
# [5] = system: A549 cells; assay: Cell-cycle distribution by flow cytometry; type: cell-based, human; conditions: 37 nM, 24 hours, vs DMSO only
# Protocol: In addition, we have also tested the effect of COMPOUND O on cell-cycle using flow Cytometry. Briefly, A549 cells were seeded at a density of 400,000 cells/well in 6-well tissue culture plates. Approximately 24 hours later the cells were treated with 37 nM COMPOUND O and allowed to further incubate for 24 hours. The cells were washed in PBS, trypsinized, counted and fixed in ice-cold 70% methanol and stored at 4° C. The cells were washed with PBS, stained with propidium iodide and kept on ice until flow Cytometry analysis.
# [6] = system: human cancer cell lines; assay: RT-CES / xCelligence profiling over the panel of cell lines; type: cell-based
# Source text: as §1, §2, §3
compound,measurement,setting,value
"CCc1ccc(Nc2nc(-c3c(C)nc4sccn34)cs2)cc1 [COMPOUND O, 2-(4-ethylphenyl)amino-4-(6-methylimidazo[2,1-b]thiazol-5-yl)-thiazole monohydrobromide]",IC50,[1],25.9 nM
same,IC50,[2],74.4 nM
same,IC50,[3],32.4 nM
same,amount of [^3H]colchicine in the flow-through,[4],reduced the amount of [^3H]colchicine in the flow-through in a concentration-dependent manner
same,cell population at G2/M phase,[5],increased significantly
same,IC50 towards all tested cancer cell lines,[6]; all tested cancer cell lines,low nM range
same,effect on the proliferation of the cancer cell lines,[6]; cell lines listed in b189 (FIGS. 4-24),exhibited inhibitory effect
